Where two headings read alike, the source gives them in different places.
Legend:
CBP bromodomain = CBP bromodomain (Homo sapiens (Human), UniProt Q92793); assay: CBP (Bromodomain) AlphaScreen Assay; type: binding; settings: FIG. 6
Procedure: Assays were performed with minimal modifications from the manufacturer's protocol (PerkinElmer®, USA). All reagents were diluted in 50 mM 4-(2-hydroxyethyl)-1-piperazineethanesulfonic acid (HEPES), 150 mM NaCl, 0.1% w/v bovine serum albumin (BSA), 0.01% w/v Tween® 20, pH 7.5 and allowed to equilibrate to room temperature prior to addition to plates. After addition of AlphaScreen® acceptor beads to master solutions, all subsequent steps were performed under low light conditions. […] Plates were spun down at 150×g, 100 nL of compound in dimethyl sulfoxide (DMSO) from stock plates were added by pin transfer using a Janus® Workstation (PerkinElmer®, USA). The streptavidin-coated donor beads (10 ng/ml final) were added as with previous the solution in a 2×10 μL volume. Following this addition, plates were sealed with foil to prevent light exposure and evaporation. The plates were spun down again at 150×g.

[1] = tested on: Kelly Neuroblastoma cells; assay: ATPlite Luminescence viability assay, Kelly neuroblastoma cells, 72 h; type: cell-based; settings: for IC50: ATPlite; for IC50 values (range in words): Kelly Neuroblastoma cell proliferation
Procedure: Kelly Neuroblastoma cells were seeded at 1,000 cells per well in 384 well, white plates and were treated in a dose-dependent manner for 72 h.

CBP = CBP (Homo sapiens (Human), UniProt Q92793); assay: Western blot for CBP degradation in Kelly NB cells; type: cell-based; settings: 24 hours
Procedure: (§1) […] Whole cell lysates were collected using ice cold lysis buffer [300 mM NaCl, 50 mM Tris-HCl, pH 7.5, 0.5% Triton X-100, 1% sodium dodecyl sulfate (SDS), 1 mM dithiothreitol (DTT) (Invitrogen™), Roche®'s cOmplete™ protease inhibitor cocktail (1:000), 25 units/mL Benzonase®] and blotted at a protein concentration of 30 μg for EP300 and CBP and 10 μg for histone H3 and H3K27ac. Lysates were also blotted for bromodomain-containing protein 4 (BRD4). Lysates were resolved in NuPAGE™ 3-8% Tris-Acetate polyacrylamide gels (EA03785BOX, Invitrogen™) for EP300 and CBP and Bolt 4-12% Bis-Tris polyacrylamide gels (NW04125BOX, Invitrogen™) for H3 and H3K27ac. Afterwards, gels were transferred to nitrocellulose membranes (LC2001, Invitrogen™). […] Visualization was performed on an Odyssey infrared imaging system (LiCor® Biosciences).

EP300 = EP300 (Homo sapiens (Human), UniProt Q09472); assay: Western blot for EP300 degradation in Kelly NB cells; type: cell-based; settings: 24 hours
Procedure: as §1

H3K27ac = assay: Western blot for H3K27ac levels in Kelly NB cells; type: cell-based; settings: 24 hours; for H3K27ac / acetylation levels (immunoblot): concentration not given; for acetylation levels (immunoblot): at 1 μM
Procedure: (§2) Kelly Neuroblastoma cells were seeded at 1,000,000 cells per well in 6 well plates and were treated in a dose-dependent manner for 24 hours. Whole cell lysates were collected using ice cold lysis buffer [300 mM NaCl, 50 mM Tris-HCl, pH 7.5, 0.5% Triton X-100, 1% sodium dodecyl sulfate (SDS), 1 mM dithiothreitol (DTT) (Invitrogen™), Roche®'s cOmplete™ protease inhibitor cocktail (1:000), 25 units/mL Benzonase®] and blotted at a protein concentration of 30 μg for EP300 and CBP and 10 μg for histone H3 and H3K27ac. Lysates were also blotted for bromodomain-containing protein 4 (BRD4). Lysates were resolved in NuPAGE™ 3-8% Tris-Acetate polyacrylamide gels (EA03785BOX, Invitrogen™) for EP300 and CBP and Bolt 4-12% Bis-Tris polyacrylamide gels (NW04125BOX, Invitrogen™) for H3 and H3K27ac. Afterwards, gels were transferred to nitrocellulose membranes (LC2001, Invitrogen™). […] Visualization was performed on an Odyssey infrared imaging system (LiCor® Biosciences).

[2] = biological target: bromodomain-containing protein 4 (BRD4) (Homo sapiens (Human), UniProt O60885); assay: Western blot for BRD4 levels in Kelly NB cells; type: cell-based; settings: 24 h, at 1 μM
Procedure: Kelly Neuroblastoma cells were seeded at 1,000,000 cells per well in 6 well plates and were treated in a dose-dependent manner for 24 hours. Whole cell lysates were collected using ice cold lysis buffer [300 mM NaCl, 50 mM Tris-HCl, pH 7.5, 0.5% Triton X-100, 1% sodium dodecyl sulfate (SDS), 1 mM dithiothreitol (DTT) (Invitrogen™), Roche®'s cOmplete™ protease inhibitor cocktail (1:000), 25 units/mL Benzonase®] and blotted at a protein concentration of 30 μg for EP300 and CBP and 10 μg for histone H3 and H3K27ac. Lysates were also blotted for bromodomain-containing protein 4 (BRD4). Lysates were resolved in NuPAGE™ 3-8% Tris-Acetate polyacrylamide gels (EA03785BOX, Invitrogen™) for EP300 and CBP and Bolt 4-12% Bis-Tris polyacrylamide gels (NW04125BOX, Invitrogen™) for H3 and H3K27ac. Afterwards, gels were transferred to nitrocellulose membranes (LC2001, Invitrogen™). Primary and secondary antibodies used included anti-p300 at 1:500 dilution (ab10485, Abcam®), anti-CBP at 1:500 dilution (D6C5, Cell Signaling Technology®), anti-Actin at 1:5000 dilution (3700S, Cell Signaling Technology®), anti-H3 at 1:1000 dilution (4499S, Cell Signaling Technology®), anti-H3K27ac at 1:1000 dilution (ab4729, Abcam®), IRDye®800 goat anti-rabbit at 1:5000 dilution (926-32211, LiCor® Biosciences) and IRDye®680 goat anti-mouse at 1:5000 dilution (926-68070, LiCor®). Visualization was performed on an Odyssey infrared imaging system (LiCor® Biosciences).

[3] = tested on: Kelly Neuroblastoma cells; assay: Western blot experiment, cytotoxicity observed in Kelly NB cells; type: cell-based; settings: 24 hours
Procedure: as §2

[4] = Kelly Neuroblastoma cells, class symbols, read-out: IC50 of inventive bispecific compounds
[5] = Kelly Neuroblastoma cells, read-out: IC50

Chain of EP300 (Q09472 whole entry): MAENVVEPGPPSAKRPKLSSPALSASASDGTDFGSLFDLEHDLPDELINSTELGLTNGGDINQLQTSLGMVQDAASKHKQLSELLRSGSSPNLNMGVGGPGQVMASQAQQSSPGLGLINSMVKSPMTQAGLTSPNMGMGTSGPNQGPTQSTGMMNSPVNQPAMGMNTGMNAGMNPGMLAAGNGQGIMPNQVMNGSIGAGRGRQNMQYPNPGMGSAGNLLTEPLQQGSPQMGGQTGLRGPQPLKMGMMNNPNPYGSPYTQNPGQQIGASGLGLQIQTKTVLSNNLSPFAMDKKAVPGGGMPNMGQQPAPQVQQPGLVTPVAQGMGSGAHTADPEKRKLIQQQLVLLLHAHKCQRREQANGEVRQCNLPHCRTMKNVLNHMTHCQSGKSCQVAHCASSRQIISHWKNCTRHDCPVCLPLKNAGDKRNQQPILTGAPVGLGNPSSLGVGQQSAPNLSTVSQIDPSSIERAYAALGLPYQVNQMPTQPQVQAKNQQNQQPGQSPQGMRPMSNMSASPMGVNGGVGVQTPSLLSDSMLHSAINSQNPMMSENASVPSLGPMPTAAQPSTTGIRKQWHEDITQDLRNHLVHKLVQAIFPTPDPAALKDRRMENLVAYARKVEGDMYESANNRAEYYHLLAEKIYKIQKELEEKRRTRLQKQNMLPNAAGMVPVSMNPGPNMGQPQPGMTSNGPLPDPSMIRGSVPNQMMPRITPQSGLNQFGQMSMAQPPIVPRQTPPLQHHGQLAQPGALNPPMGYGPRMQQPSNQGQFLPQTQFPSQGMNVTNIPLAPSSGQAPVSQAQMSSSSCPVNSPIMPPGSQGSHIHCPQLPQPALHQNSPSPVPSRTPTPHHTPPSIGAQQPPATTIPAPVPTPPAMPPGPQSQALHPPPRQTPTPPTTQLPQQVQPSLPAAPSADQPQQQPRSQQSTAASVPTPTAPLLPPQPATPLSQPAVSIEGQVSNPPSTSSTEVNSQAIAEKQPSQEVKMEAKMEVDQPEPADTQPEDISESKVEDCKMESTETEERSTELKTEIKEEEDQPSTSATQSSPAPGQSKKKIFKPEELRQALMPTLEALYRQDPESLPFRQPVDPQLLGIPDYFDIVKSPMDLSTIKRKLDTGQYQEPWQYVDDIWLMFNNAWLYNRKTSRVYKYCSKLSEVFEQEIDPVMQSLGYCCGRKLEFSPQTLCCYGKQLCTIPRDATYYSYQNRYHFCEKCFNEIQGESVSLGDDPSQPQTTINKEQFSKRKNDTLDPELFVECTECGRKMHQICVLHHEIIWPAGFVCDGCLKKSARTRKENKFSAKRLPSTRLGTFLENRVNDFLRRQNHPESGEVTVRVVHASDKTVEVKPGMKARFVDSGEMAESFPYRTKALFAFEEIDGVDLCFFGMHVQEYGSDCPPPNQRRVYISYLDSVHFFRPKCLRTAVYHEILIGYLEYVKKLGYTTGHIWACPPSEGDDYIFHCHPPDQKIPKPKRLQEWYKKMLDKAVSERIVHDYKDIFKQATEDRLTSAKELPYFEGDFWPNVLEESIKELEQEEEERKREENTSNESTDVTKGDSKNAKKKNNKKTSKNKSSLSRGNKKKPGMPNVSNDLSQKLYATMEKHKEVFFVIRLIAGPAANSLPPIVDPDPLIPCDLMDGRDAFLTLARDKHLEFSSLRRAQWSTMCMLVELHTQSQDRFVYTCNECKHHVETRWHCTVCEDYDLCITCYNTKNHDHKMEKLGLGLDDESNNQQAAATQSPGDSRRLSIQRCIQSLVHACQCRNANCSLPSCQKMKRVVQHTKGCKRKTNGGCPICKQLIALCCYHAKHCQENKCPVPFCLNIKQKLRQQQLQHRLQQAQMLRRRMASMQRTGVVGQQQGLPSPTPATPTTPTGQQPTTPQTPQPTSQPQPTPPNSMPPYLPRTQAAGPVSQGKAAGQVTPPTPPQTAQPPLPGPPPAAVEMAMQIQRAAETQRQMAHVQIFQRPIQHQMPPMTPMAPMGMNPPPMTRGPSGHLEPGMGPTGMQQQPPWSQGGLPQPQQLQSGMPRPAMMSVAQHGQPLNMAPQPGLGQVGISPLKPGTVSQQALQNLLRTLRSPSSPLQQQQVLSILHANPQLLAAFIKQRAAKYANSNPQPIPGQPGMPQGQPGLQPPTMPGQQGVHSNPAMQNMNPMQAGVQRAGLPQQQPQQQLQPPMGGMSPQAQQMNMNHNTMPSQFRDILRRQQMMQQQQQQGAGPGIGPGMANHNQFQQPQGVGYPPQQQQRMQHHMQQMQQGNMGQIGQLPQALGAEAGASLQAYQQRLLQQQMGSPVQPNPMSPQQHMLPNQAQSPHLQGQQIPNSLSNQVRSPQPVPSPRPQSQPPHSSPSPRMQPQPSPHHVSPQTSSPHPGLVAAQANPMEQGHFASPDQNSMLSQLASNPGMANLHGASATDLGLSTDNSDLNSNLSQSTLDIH
Chain of CBP (Q92793 whole entry): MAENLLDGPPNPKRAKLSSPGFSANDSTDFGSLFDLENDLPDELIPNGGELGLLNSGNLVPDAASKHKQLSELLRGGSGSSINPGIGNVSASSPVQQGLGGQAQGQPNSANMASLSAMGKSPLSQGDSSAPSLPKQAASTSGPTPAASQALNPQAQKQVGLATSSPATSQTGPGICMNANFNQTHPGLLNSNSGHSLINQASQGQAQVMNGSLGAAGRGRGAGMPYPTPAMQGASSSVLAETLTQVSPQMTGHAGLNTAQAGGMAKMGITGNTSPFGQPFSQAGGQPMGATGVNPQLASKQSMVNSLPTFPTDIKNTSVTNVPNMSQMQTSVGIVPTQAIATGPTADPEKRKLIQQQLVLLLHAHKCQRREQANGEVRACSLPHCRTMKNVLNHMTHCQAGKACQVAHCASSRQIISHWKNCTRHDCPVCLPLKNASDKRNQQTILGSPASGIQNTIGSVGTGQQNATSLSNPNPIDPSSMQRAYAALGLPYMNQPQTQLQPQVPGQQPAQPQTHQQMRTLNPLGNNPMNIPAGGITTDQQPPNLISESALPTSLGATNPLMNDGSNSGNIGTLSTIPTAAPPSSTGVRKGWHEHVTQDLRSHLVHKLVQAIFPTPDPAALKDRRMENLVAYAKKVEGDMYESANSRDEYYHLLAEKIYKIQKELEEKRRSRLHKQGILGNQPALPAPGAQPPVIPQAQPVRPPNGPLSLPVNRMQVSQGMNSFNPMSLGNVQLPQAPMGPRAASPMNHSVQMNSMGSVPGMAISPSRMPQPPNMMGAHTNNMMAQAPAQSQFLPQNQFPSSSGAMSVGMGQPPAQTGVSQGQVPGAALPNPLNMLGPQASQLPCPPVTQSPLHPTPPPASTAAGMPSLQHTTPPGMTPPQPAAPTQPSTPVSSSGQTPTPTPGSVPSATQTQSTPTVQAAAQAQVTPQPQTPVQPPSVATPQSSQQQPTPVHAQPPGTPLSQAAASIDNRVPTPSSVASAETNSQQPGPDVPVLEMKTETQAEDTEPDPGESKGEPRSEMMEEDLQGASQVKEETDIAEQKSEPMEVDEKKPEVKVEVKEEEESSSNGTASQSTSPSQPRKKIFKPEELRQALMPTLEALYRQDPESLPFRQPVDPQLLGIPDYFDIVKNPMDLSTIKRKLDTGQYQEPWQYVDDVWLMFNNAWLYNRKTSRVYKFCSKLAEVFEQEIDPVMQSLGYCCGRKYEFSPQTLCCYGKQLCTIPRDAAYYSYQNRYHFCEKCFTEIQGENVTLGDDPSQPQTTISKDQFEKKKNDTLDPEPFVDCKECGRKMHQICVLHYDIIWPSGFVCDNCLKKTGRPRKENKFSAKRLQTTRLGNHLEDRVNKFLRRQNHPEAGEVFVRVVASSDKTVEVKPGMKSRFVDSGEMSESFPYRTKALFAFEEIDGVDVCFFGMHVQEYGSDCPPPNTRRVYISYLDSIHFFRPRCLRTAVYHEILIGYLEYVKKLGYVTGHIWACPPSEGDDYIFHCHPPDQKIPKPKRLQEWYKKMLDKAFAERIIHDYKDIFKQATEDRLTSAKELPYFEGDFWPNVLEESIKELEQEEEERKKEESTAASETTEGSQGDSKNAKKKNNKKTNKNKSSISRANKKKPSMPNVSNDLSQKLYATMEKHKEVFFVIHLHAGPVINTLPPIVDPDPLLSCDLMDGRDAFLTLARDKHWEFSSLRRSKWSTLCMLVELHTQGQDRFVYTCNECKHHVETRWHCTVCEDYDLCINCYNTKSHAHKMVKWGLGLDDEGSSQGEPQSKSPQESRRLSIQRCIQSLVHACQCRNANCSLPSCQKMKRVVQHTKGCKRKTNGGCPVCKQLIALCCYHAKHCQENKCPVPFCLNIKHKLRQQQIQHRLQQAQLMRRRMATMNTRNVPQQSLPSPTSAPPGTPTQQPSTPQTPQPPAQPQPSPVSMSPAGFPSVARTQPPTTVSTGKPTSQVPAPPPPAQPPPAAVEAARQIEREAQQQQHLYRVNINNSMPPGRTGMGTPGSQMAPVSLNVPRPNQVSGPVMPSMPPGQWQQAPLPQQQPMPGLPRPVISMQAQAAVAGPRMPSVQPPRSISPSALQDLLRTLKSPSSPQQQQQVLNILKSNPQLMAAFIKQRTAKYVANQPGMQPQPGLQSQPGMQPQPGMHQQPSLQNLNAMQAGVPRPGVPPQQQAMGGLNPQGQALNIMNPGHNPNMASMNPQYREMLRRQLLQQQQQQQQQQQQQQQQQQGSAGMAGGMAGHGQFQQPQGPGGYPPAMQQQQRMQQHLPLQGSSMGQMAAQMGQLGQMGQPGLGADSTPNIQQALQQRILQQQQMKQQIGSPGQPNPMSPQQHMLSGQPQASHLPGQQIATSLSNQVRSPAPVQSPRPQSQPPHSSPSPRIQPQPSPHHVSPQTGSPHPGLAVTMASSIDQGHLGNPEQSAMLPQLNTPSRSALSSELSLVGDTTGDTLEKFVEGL
Chain of CBP bromodomain (Q92793 1085-1192): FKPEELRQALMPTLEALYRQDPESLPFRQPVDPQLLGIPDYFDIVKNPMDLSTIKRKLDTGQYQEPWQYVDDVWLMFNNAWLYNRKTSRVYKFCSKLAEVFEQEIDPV

| SMILES | IC50 [1, 4] | IC50 [1, 5] | CBP degradation (immunoblot) (CBP; at 1 μM) | P300 degradation (immunoblot) (EP300; at 1 μM) | BRD4 degradation (immunoblot) [2] | acetylation levels (immunoblot) (H3K27ac) | other results |
| --- | --- | --- | --- | --- | --- | --- | --- |
| Cc1noc(C)c1-c1ccc2nc(-c3ccc(N4CCN(C(=O)CCOCCOCCOCCNc5cccc6c5C(=O)N(C5CCC(=O)NC5=O)C6=O)CC4)cc3)c(NC3CCCCC3)n2c1 (stereo not shown) [Compound 2, 4-((2-(2-(2-(3-(4-(4-(3-(cyclohexylamino)-6-(3,5-dimethylisoxazol-4-yl)imidazo[1,2-a]pyridin-2-yl)phenyl)piperazin-1-yl)-3-oxopropoxy)ethoxy)ethoxy)ethyl)amino)-2-(2,6-dioxopiperidin-3-yl)isoindoline-1,3-dione] | < 100 nM | 91.8 ± 6.58 nM |  |  |  |  | bound to CBP (bromodomain), range (CBP bromodomain): ~10 µM; IC50 potency relative to A485 ([1]; Kelly Neuroblastoma cells, more potent than A485): about 10 fold; CBP degradation (immunoblot) (CBP; concentration not given): potent degrader; EP300 degradation (immunoblot) (EP300; concentration not given): potent degrader; H3K27ac / acetylation levels (immunoblot) (H3K27ac): evident reduction |
| Cc1noc(C)c1-c1ccc2nc(-c3ccc(N4CCN(C(=O)CCOCCOCCOCCOCCOCCOCCNc5cccc6c5C(=O)N(C5CCC(=O)NC5=O)C6=O)CC4)cc3)c(NC3CCCCC3)n2c1 (stereo not shown) [Compound 3, 4-((21-(4-(4-(3-(cyclohexylamino)-6-(3,5-dimethylisoxazol-4-yl)imidazo[1,2-a]pyridin-2-yl)phenyl)piperazin-1-yl)-21-oxo-3,6,9,12,15,18-hexaoxahenicosyl)amino)-2-(2,6-dioxopiperidin-3-yl)isoindoline-1,3-dione] | 100 to 1000 nM | 706 nM |  |  |  |  | IC50 values (range in words) [1]: micromolar and sub-micromolar range; CBP degradation (immunoblot) (CBP; at 10 μM): some degradation; P300 degradation (immunoblot) (EP300; at 10 μM): some degradation |
| Cc1noc(C)c1-c1ccn2c(NCc3ccccc3)c(-c3ccc(N4CCN(C(=O)COc5cccc6c5C(=O)N(C5CCC(=O)NC5=O)C6=O)CC4)cc3)nc2c1 (stereo not shown) [Compound 7, 4-(2-(4-(4-(3-(benzylamino)-7-(3,5-dimethylisoxazol-4-yl)imidazo[1,2-a]pyridin-2-yl)phenyl)piperazin-1-yl)-2-oxoethoxy)-2-(2,6-dioxopiperidin-3-yl)isoindoline-1,3-dione] | < 100 nM | 33.1 nM | noticeable degradation | noticeable degradation |  |  | IC50 values (range in words) [1]: micromolar and sub-micromolar range; H3K27ac / acetylation levels (immunoblot) (H3K27ac): slight reduction |
| Cc1noc(C)c1-c1ccn2c(NC3CCCCC3)c(CCc3ccc(NC(=O)CCOCCOCCOCCNc4cccc5c4C(=O)N(C4CCC(=O)NC4=O)C5=O)cc3)nc2c1 (stereo not shown) [Compound 8, N-(4-(2-(3-(cyclohexylamino)-7-(3,5-dimethylisoxazol-4-yl)imidazo[1,2-a]pyridin-2-yl)ethyl)phenyl)-3-(2-(2-(2-((2-(2,6-dioxopiperidin-3-yl)-1,3-dioxoisoindolin-4-yl)amino)ethoxy)ethoxy)ethoxy)propanamide] | 100 to 1000 nM |  | noticeable degradation | noticeable degradation | observed | reduction |  |
| Cc1noc(C)c1-c1ccn2c(NC3CCCCC3)c(CCc3ccc(NC(=O)CCCCCNc4cccc5c4C(=O)N(C4CCC(=O)NC4=O)C5=O)cc3)nc2c1 (stereo not shown) [Compound 11, N-(4-(2-(3-(cyclohexylamino)-7-(3,5-dimethylisoxazol-4-yl)imidazo[1,2-a]pyridin-2-yl)ethyl)phenyl)-6-((2-(2,6-dioxopiperidin-3-yl)-1,3-dioxoisoindolin-4-yl)amino)hexanamide] | 100 to 1000 nM |  | noticeable degradation | noticeable degradation | observed | reduction |  |
| Cc1noc(C)c1-c1ccn2c(NC3CCCCC3)c(CCc3ccc(NC(=O)COc4cccc5c4C(=O)N(C4CCC(=O)NC4=O)C5=O)cc3)nc2c1 (stereo not shown) [Compound 12, N-(4-(2-(3-(cyclohexylamino)-7-(3,5-dimethylisoxazol-4-yl)imidazo[1,2-a]pyridin-2-yl)ethyl)phenyl)-2-((2-(2,6-dioxopiperidin-3-yl)-1,3-dioxoisoindolin-4-yl)oxy)acetamide] | 1000 to 10000 nM |  |  | noticeable degradation | observed | reduction |  |
| Cc1noc(C)c1-c1ccc2nc(-c3ccc(N4CCNCC4)cc3)c(NC3CCCCC3)n2c1.Cl [Int-2] |  |  |  |  |  |  | bound to CBP (bromodomain), range (CBP bromodomain): ~10 µM; general cytotoxicity [3]: general cytotoxicity |

The next lines start with results.

| IC50 [1, 4] | IC50 [1, 5] | CBP degradation (immunoblot) (CBP; at 1 μM) | P300 degradation (immunoblot) (EP300; at 1 μM) | BRD4 degradation (immunoblot) [2] | SMILES | acetylation levels (immunoblot) (H3K27ac) | other results |
| --- | --- | --- | --- | --- | --- | --- | --- |
| > 10000 nM |  |  |  |  | Cc1noc(C)c1-c1ccc2c(c1)nc(CCc1ccc(NCCNC(=O)CCCCCNc3cccc4c3C(=O)N(C3CCC(=O)NC3=O)C4=O)cc1)n2CC(C)N1CCOCC1 (stereo not shown) [Compound 28, N-(2-((4-(2-(5-(3,5-dimethylisoxazol-4-yl)-1-(2-morpholinopropyl)-1H-benzo[d]imidazol-2-yl)ethyl)phenyl)amino)ethyl)-6-((2-(2,6-dioxopiperidin-3-yl)-1,3-dioxoisoindolin-4-yl)amino)hexanamide] |  |  |
| < 100 nM |  |  |  |  | Cc1noc(C)c1-c1ccc2c(c1)nc([C@@H]1CCCC(=O)N1c1ccc(F)c(F)c1)n2[C@H]1CC[C@H](NC(=O)CCCCCCCCCNc2cccc3c2C(=O)N(C2CCC(=O)NC2=O)C3=O)CC1 (stereo partly drawn) [Compound 29, N-((1S,4r)-4-(2-((S)-1-(3,4-difluorophenyl)-6-oxopiperidin-2-yl)-5-(3,5-dimethylisoxazol-4-yl)-1H-benzo[d]imidazol-1-yl)cyclohexyl)-10-((2-(2,6-dioxopiperidin-3-yl)-1,3-dioxoisoindolin-4-yl)amino)decanamide] |  |  |
| 100 to 1000 nM |  |  |  |  | Cc1noc(C)c1-c1ccc2c(c1)nc([C@@H]1CCCC(=O)N1c1ccc(F)c(F)c1)n2[C@H]1CC[C@H](NC(=O)CCCCCNc2cccc3c2C(=O)N(C2CCC(=O)NC2=O)C3=O)CC1 (stereo partly drawn) [Compound 30, N-((1S,4r)-4-(2-((S)-1-(3,4-difluorophenyl)-6-oxopiperidin-2-yl)-5-(3,5-dimethylisoxazol-4-yl)-1H-benzo[d]imidazol-1-yl)cyclohexyl)-6-((2-(2,6-dioxopiperidin-3-yl)-1,3-dioxoisoindolin-4-yl)amino)hexanamide] |  |  |

Reference: US12496348B2, “Small molecule target bromo/acetyl proteins and uses thereof” (DANA-FARBER CANCER INSTITUTE, INC., priority 2019, dated 2025)
